{"source": "patent US9737548B2", "about": "“Pharmaceutical formulations and uses thereof in the treatment of female sexual dysfunction” (EB IP LYBRIDO B.V., priority 2005, dated 2017)", "origin": "cited, not measured here", "key": {"[1]": {"details": "serum concentration"}, "[2]": {"details": "short-lasting peak formulation"}}, "data": [{"smiles": "COc1cc2nc(N3CCN(C(=O)c4ccco4)CC3)nc(N)c2cc1OC", "note": "[prazosin]", "values": [{"measurement": "Tmax", "setting": "[1]", "result": "1 to 2", "unit": "h"}]}, {"smiles": "C[C@]12CC[C@H]3[C@@H](CCC4=CC(=O)CC[C@@]43C)[C@@H]1CC[C@@H]2O", "note": "[testosterone, 17-β-hydroxyandrost-4-en-3-one]", "values": [{"measurement": "time after administration at which peak serum level of testosterone is obtained", "setting": "[2]", "result": "1 to 20", "unit": "min"}, {"measurement": "time after which testosterone serum level is back to the level before administration", "setting": "[2]", "result": "approximately 120 minutes"}]}]}
